Test results published in PubChem BioAssay AID330 (DTP/NCI, 2004).
Several values for one entry are separate records, joined by “and”; a condition that tells them apart may be missing. Equal values may be shown once. Inconclusive results and toxic doses are left out. The calls were made as follows: active = survival T/C of 150% or more; inactive = T/C below 125% in these data.

System: P388 leukemia ip, CD2F1 mice, survival T/C
Assay: NCI In Vivo Anticancer Drug Screen. Data for tumor model P388 Leukemia (intraperitoneal) in CD2F1 (CDF1) mice
Settings: endpoint: median survival time, higher = longer survival
Procedure, shortened: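 Mice carrying the transplanted tumor received test compound or vehicle. Survival was recorded in each group, and the value is the treated-group measurement divided by that of the vehicle-treated control group.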

[1] = dose: 50.0 mg/kg/injection, schedule: Q01DX009 (ip), vehicle: other
[2] = dose: 100.0 mg/kg/injection, schedule: Q01DX009 (ip), vehicle: other
[3] = dose: 200.0 mg/kg/injection, schedule: Q01DX009 (ip), vehicle: other
[4] = dose: 50.0 mg/kg/injection, schedule: Q01DX009 (ip), vehicle: saline with Tween-80
[5] = dose: 100.0 mg/kg/injection, schedule: Q01DX009 (ip), vehicle: saline with Tween-80
[6] = dose: 50.0 mg/kg/injection, schedule: Q01DX005 (ip), vehicle: saline
[7] = dose: 100.0 mg/kg/injection, schedule: Q01DX005 (ip), vehicle: saline
[8] = dose: 200.0 mg/kg/injection, schedule: Q01DX005 (ip), vehicle: saline
[9] = dose: 200.0 mg/kg/injection, schedule: Q01DX009 (ip), vehicle: saline with Tween-80

Measured: T/C

Nc1ccc([N+](=O)[O-])c(N)n1
inactive: dose: 100.0 mg/kg/injection, schedule: Q04DX003 (ip), vehicle: saline with Tween-80 100 % of control | dose: 200.0 mg/kg/injection, schedule: Q04DX003 (ip), vehicle: saline with Tween-80 107 % of control | dose: 400.0 mg/kg/injection, schedule: Q04DX003 (ip), vehicle: saline with Tween-80 97 % of control

C=CC1(C)CCOC(=O)C1 (stereo not drawn)
inactive: dose: 60.0 mg/kg/injection, schedule: Q01DX005 (ip), vehicle: saline with Tween-80 94 % of control | dose: 120.0 mg/kg/injection, schedule: Q01DX005 (ip), vehicle: saline with Tween-80 97 % of control

NNC(=O)c1cc2c(cn1)[nH]c1ccccc12
inactive: dose: 12.5 mg/kg/injection, schedule: Q01DX009 (ip), vehicle: other 101 % of control | dose: 25.0 mg/kg/injection, schedule: Q01DX009 (ip), vehicle: other 98 % of control | [1] 97 % of control | [2] 92 % of control | [3] 101 % of control

CCS(=O)(=O)OCCCCOS(=O)(=O)CC
inactive: dose: 12.5 mg/kg/injection, schedule: Q01DX009 (ip), vehicle: saline with Tween-80 100 % of control and 97 % of control | dose: 25.0 mg/kg/injection, schedule: Q01DX009 (ip), vehicle: saline with Tween-80 103 % of control and 93 % of control | [4] 115 % of control and 90 % of control | [5] 114 % of control and 90 % of control

CCOC(=O)CCC(=O)N(CCCNc1c2ccccc2nc2c(OC)cccc12)CCCNc1c2ccccc2nc2c(OC)cccc12
inactive: dose: 1.25 mg/kg/injection, schedule: Q01DX009 (ip), vehicle: water 111 % of control | dose: 2.5 mg/kg/injection, schedule: Q01DX009 (ip), vehicle: water 116 % of control | dose: 20.0 mg/kg/injection, schedule: Q01DX009 (ip), vehicle: water 97 % of control

CC(=O)NCCSSCCCCS(=O)O
inactive: [6] 106 % of control and 115 % of control | [7] 118 % of control and 121 % of control | [8] 124 % of control

CCCCc1cc2ccccc2c(OCCN(C)C)n1
inactive: [6] 97 % of control | [7] 115 % of control | [8] 111 % of control

S=C1SC2(CCCC2)NC2=C1CCC2
inactive: [4] 90 % of control | [5] 93 % of control | [9] 99 % of control

O=C(COc1ccc(Cl)cc1)NN1CCCCCC1
inactive: dose: 7.5 mg/kg/injection, schedule: Q01DX005 (ip), vehicle: Klucel (hydroxypropylcellulose) (HPC) 99 % of control | dose: 15.0 mg/kg/injection, schedule: Q01DX005 (ip), vehicle: Klucel (hydroxypropylcellulose) (HPC) 98 % of control

c1cc2c(cc1CSCc1c(CSCc3ccc4c(c3)OCO4)c(CSCc3ccc4c(c3)OCO4)c(CSCc3ccc4c(c3)OCO4)c(CSCc3ccc4c(c3)OCO4)c1CSCc1ccc3c(c1)OCO3)OCO2
inactive: [4] 100 % of control | [5] 99 % of control | [9] 97 % of control

CCCCCCCCCCC(=O)CCCCCC
inactive: [1] 90 % of control | [2] 100 % of control | [3] 109 % of control

Cc1c2oc3c(C)ccc(C(=O)NC(C(=O)NC(C(=O)NN)C(C)C)C(C)O)c3nc-2c(C(=O)NC(C(=O)NC(C(=O)NN)C(C)C)C(C)O)c(N)c1=O (stereo not drawn)
inactive: dose: 0.05 mg/kg/injection, schedule: Q01DX009 (ip), vehicle: water 106 % of control | dose: 0.1 mg/kg/injection, schedule: Q01DX009 (ip), vehicle: water 107 % of control | dose: 0.2 mg/kg/injection, schedule: Q01DX009 (ip), vehicle: water 97 % of control | dose: 0.4 mg/kg/injection, schedule: Q01DX009 (ip), vehicle: water 101 % of control | dose: 0.8 mg/kg/injection, schedule: Q01DX009 (ip), vehicle: water 101 % of control | dose: 1.6 mg/kg/injection, schedule: Q01DX009 (ip), vehicle: water 108 % of control and 110 % of control | dose: 3.2 mg/kg/injection, schedule: Q01DX009 (ip), vehicle: water 99 % of control | dose: 6.4 mg/kg/injection, schedule: Q01DX009 (ip), vehicle: water 99 % of control | dose: 12.8 mg/kg/injection, schedule: Q01DX009 (ip), vehicle: water 97 % of control
